# Source: publication PMC5585294, “A potent series targeting the malarial cGMP-dependent protein kinase clears infection and blocks transmission” (Nature Communications, 2017)
# Where two headings read alike, the source gives them in different places.
# Experiments:
# [1] = Cytotoxicity assay (ATP depletion), HT-29; format: cell-based; settings: human, HT-29 colorectal adenocarcinoma cells, 0.001–10 µM, n = 6
# Experimental: (§1) A549 (lung carcinoma; ATCC, Ref. ATCC® CCL-185™), plated at 7.5×10^3 cells/well; HT-29 (colorectal adenocarcinoma; ATCC, Ref. ATCC® HTB-38™), plated at 7.5×10^3 cells/well; and MCF7 (breast adenocarcinoma; ATCC, Ref. ATCC® HTB-22™), plated at 9× 10^3 cells/well, were placed into clear bottom, opaque 96 well plates in cell line-specific medium and allowed to attach overnight. […] FCS, 1× GlutaMAX™ Supplement (Life Technologies, 35050061) and 50 units/ml penicillin and 50 µg/ml streptomycin for 48 h. Six independent assays were performed for each line and were carried out by CXR Biosciences Ltd. End point for cytotoxicity assessment was carried out using an ATP depletion kit (CellTiter-Glo Luminescent Cell Viability Assay for ATP quantitation (Promega, Cat # G7572)). Results expressed relative to the 0.1% DMSO control. Unpaired Student’s t-tests were performed using GraphPad Prism software (7.0).
# human MLK3 = molecular target: T1, human MLK3 (Homo sapiens, UniProt Q16584); assay: Human kinase panel single point screen, MLK3; format: biochemical; settings: at 100 nM; highest level of inhibition in the panel
# T1 construct: Protein Phosphorylation Unit, Dundee (screening site)
# Description: (§2) The results are expressed as % inhibition of kinase activity.
# (§3) (1 picture or pasted object on this page, not shown here)
# in vivo [2] = settings: BALB/c, mouse, po
# Description: (§4) Supplementary Figure 4. Plasma concentrations over time in rodent malaria models. […] Error bars show the standard deviation. (1 picture or pasted object on this page, not shown here)
# [3] = tested on: P. falciparum Pf3D7 0087/N9; assay: GSK P. falciparum humanized mouse model (GSKPfalcHuMouse) efficacy; settings: 4 days
# Description: The mice were infected with 2 × 10^7 P. falciparum Pf3D7^0087/N9-infected erythrocytes (Day 0) at ~ 40% chimerism in peripheral blood. […] AUCED90 is the average daily exposure of the compound in whole blood that reduces parasitemia at day 7 of the in vivo assay by 90% with respect to parasitemia in vehicle-treated mice.
# [4] = Cytotoxicity assay (ATP depletion), A549; format: cell-based; settings: human, A549 lung carcinoma cells, 0.001–10 µM, n = 6
# Experimental: as §1
# [5] = tested on: P. falciparum strain 3D7A; assay: In vitro parasite reduction rate (PRR) assay; settings: 10× EC50
# Experimental: The assay used the limiting dilution technique to quantify the number of parasites that remained viable after drug treatment. […] To quantify the number of viable parasites after treatment, threefold serial dilutions were used with the above-mentioned samples after removing the drug. Four independent serial dilutions were performed with each sample to correct experimental variations. The number of viable parasites was determined after 21 and 28 days by counting the number of wells with growth using [^3H]-hypoxanthine incorporation. The number of viable parasites was back-calculated by using the formula X ^n-1 where n is the number of wells able to render growth and X the dilution factor (when n = 0, number of viable parasites is estimated as zero).
# physchem = settings: pH 7.4
# Experimental: (§5) Compound mlm hlm mLogD PAMPA HepG2 name (%rem) (%rem) (nm/s) (IC50 µM)
# (§6) Supplementary Table 2. Compound Properties. MLM, HLM, mLogD and PAMPA . mlm (%rem): % of compound remaining after 30 minutes’ incubation with mouse liver microsomes; hlm (%rem): % of compound remaining after 40 minutes’ incubation with human liver microsomes; mLogD: measured LogD at pH 7.4; PAMPA: parallel artificial membrane permeability assay; HepG2: Cytotoxicity assay using HepG2 cells; n.t.: not tested.
# [6] = tested on: panel of 80 human protein kinases; assay: Human kinase panel single point screen; format: biochemical; settings: tested at 100 nM
# Description: as §2, §3
# in vivo [7] = settings: NOD-scid IL-2Rγc-null, mouse, po
# Experimental: The blood samples were immediately lysed by mixing with 25 μl of distilled water, frozen on dry ice and stored at −80 °C until analysis. The compounds were extracted from 10 μl of each lysate by liquid–liquid extraction in the MultiScreen Solvinert 0.45 μm Hydrophobic PTFE 96-well plate system (Millipore) and stored frozen at −80 °C until analysis by LC/MS/MS in API4000 (AB Sciex, Framingham, MA). The compound concentration vs. time data were analyzed by non-compartmental analysis using Phoenix® Version 6.3 (Pharsight Corporation, Mountain View, CA, USA). Additional statistical analysis was performed with GraphPad Prism® Version 6.02 (GraphPad Software Inc, San Diego CA, USA).
# [8] = Parallel artificial membrane permeability assay (PAMPA); format: in vitro ADME
# Description: Compound mlm hlm mLogD PAMPA HepG2
# name (%rem) (%rem) (nm/s) (IC50 µM)
# Supplementary Table 2. Compound Properties. MLM, HLM, mLogD and PAMPA . mlm
# [9] = tested on: P. falciparum wild-type (3D7) stage V gametocytes; assay: Gametogenesis (rounding up) assay, wild-type 3D7 stage V gametocytes; format: cell-based, Plasmodium falciparum; settings: 30 µM xanthurenic acid; 2 µM ML1, 1 µM ML10
# Experimental: Plasmodium falciparum clone 3D7A (obtained from Dr Lisa Ranford-Cartwright, University of Edinburgh) gametocytes were initiated and cultured using an adapted version of the traditional Trager and Jenson method modified by Fivelman and colleagues. Stage V gametocytes were purified on a 60% Percoll gradient. Purified parasite samples were diluted in warm complete media (RPMI-1640 (Sigma), 0.5% Albumax (Invitrogen), 0.03% L-glutamine (Sigma), 0.2% Glucose (Sigma), 1× hypoxanthine (Sigma)), to a volume that would allow a final volume of […] per sample and a haematocrit of <10%. […] Control tubes containing DMSO only were kept at 37 °C. All other samples were incubated at room temperature for 30 min immediately after addition of test compounds. Samples were then washed once in warm RPMI followed by removal of the supernatant to leave a final haematocrit of roughly 50%. Samples were smeared on glass slides and fixed in 100% methanol (VWR) then stained for 15 min in 10% Giemsa R66 (VWR) and observed by light microscopy. The number of gametocytes at stage V and rounded up per 900 erythrocytes were counted three consecutive times to produce an average count. Numbers of parasites rounded up were compared to the no drug control.
# [10] = tested on: P. falciparum gatekeeper mutant (T618Q) stage V gametocytes; assay: Gametogenesis (rounding up) assay, T618Q stage V gametocytes; format: cell-based, Plasmodium falciparum; settings: 30 µM xanthurenic acid; 2 µM ML1, 1 µM ML10
# [11] = Plasma levels in satellite groups of mice, P. berghei experiment; format: in vivo, mouse; settings: BALB/c, mouse, in vivo, po, 25 mg/kg
# Description: as §4
# [12] = Cytotoxicity assay (ATP depletion), MCF7; format: cell-based; settings: human, MCF7 breast adenocarcinoma cells, 0.001–10 µM, n = 6
# Experimental: as §1
# [13] = Cytotoxicity assay using HepG2 cells; settings: human
# Experimental: as §5, §6
# P. falciparum 3D7 = assay: Hypoxanthine incorporation growth inhibition assay, asexual blood stage, wild-type 3D7; format: cell-based, Plasmodium falciparum; settings: 3D7 asexual blood stage growth, 72 h, +/- s.e.m.; for EC50: read-out: EC50 WT
# Experimental: Hypoxanthine incorporation assays[36] were performed on P. falciparum asexual blood stage parasites (wild-type 3D7 or T618Q gatekeeper mutant) to determine EC50 values for test compounds. Mixed staged parasites (primarily rings) were added to 96 well plates containing compounds at concentrations of 50 μM–0.3 nM. […] Assays were carried out in triplicate at least twice.
# T1 sequence (Q16584 whole entry): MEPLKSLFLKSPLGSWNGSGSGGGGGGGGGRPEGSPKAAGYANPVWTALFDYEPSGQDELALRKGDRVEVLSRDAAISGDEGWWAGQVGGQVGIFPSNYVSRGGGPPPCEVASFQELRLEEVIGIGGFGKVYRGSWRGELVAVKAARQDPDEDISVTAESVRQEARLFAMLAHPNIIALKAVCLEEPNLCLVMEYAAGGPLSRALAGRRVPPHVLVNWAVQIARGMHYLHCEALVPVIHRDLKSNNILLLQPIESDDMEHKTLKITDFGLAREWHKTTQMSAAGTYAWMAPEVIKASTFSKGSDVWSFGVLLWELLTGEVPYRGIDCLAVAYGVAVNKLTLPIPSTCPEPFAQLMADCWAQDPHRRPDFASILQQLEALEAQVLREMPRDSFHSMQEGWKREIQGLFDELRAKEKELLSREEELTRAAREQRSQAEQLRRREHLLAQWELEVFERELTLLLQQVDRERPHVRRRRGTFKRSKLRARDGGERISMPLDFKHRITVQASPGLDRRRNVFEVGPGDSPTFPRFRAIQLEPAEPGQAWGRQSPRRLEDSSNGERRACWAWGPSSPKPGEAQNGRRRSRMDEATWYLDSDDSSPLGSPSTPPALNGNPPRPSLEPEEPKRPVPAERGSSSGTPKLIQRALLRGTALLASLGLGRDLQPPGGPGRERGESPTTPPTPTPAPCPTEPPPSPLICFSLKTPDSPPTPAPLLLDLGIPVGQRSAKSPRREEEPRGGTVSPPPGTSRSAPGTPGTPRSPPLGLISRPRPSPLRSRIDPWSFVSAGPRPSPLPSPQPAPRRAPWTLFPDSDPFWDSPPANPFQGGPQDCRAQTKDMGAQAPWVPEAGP
smiles,measurement,setting,value
Cc1cn2c(-c3ccnc(NCC4CC4)n3)c(-c3ccc(F)c(NS(C)(=O)=O)c3)nc2cc1CN(C)C [ML10],EC50 at 48 h,[1],> 10000 nM
same,inhibition at 0.1 µM,human MLK3,40%
same,half-life,in vivo [2]; 25 mg/kg,0.8 h
same,concentration at 30 min,in vivo [2]; 50 mg/kg,10.4 µM
same,concentration at 60 min,in vivo [2]; 50 mg/kg,~8.4 µM
same,concentration at 4 h,in vivo [2]; 50 mg/kg,< 0.084 µM
same,half-life,in vivo [2]; 50 mg/kg,1.1 h
same,parasitaemia at the end of the treatment,[3]; 100 mg/kg twice daily oral,not detectable
same,effect on parasitaemia,[3]; 50 or 100 mg/kg twice daily oral,dramatically reduced parasitaemia
same,EC50 at 48 h,[4],> 10000 nM
same,lag before killing (effects reversible following wash-out),[5],about 24 h
same,logD,physchem,2.8
same,inhibitory activity against panel of 80 human protein kinases,[6],only low levels of inhibitory activity
same,half-life,in vivo [7]; 50 mg/kg,8.7 h
same,half-life,in vivo [7]; 100 mg/kg,17 h
same,Papp,[8],8.16 ×10⁻⁶ cm/s
same,rounding up of wild-type gametocytes,[9],blocked rounding up
same,rounding up of T618Q gametocytes,[10],insensitive
same,half-life,[11],0.8 h
same,EC50 at 48 h,[12],> 10000 nM
same,IC50,[13],> 20000 nM
same,EC50,P. falciparum 3D7,2.1 nM
same,EC50,"P. falciparum 3D7; Plasmodium falciparum, 3D7, 72 h",~2 nM
same,EC90,P. falciparum 3D7; Plasmodium falciparum,4.5 nM
